Assay [1] deals with desensitized FPR2. Put plainly: PAF-induced cross-talk reactivation of desensitized FPR2 (superoxide). The conditions noted are these: PAF 100 nM; inhibitor before PAF; calyculin A 60 nM 10 min at 37°C; PBP10 1 µM; WEB2086 data not shown. The assay is classed as cell-based, human. On the procedure:
(§1) Human peripheral blood neutrophils were isolated from buffy coats from healthy blood donors using dextran sedimentation and Ficoll-Paque gradient centrifugation as described. The remaining erythrocytes were disrupted by hypotonic lysis, the neutrophils were washed twice, resuspended in KRG, and stored on melting ice until use. This isolation procedure permits cells to be purified with minimal granule mobilization.
(§2) The NADPH-oxidase activity was determined using isoluminol-enhanced chemiluminescence (CL), [27]. The CL activity was measured in a six-channel Biolumat LB 9505 (Berthold Co., Wildbad, Germany), using disposable 4-ml polypropylene tubes with a 900 µl reaction mixture containing 10^5 cells, isoluminol (2×10^−5 M) and HRP (2 U). The tubes were equilibrated in the Biolumat for 5 min at 37°C, after which the stimulus (100 µl) was added and the light emission was recorded continuously. Receptor desensitized cells were defined as naïve (non-desensitized) cells that had first been stimulated with a receptor specific agonist and returned to baseline after the resulting release of superoxide before a second stimulation. When reactivation experiments were performed with antagonists, the antagonists were added to the CL reaction mixture 1 min before the second stimulation. For studies with signaling inhibitors, cells were incubated with inhibitors at 37°C for 15 min before agonist addition. Control cells received no treatment but were incubated under the same conditions.
Figure 3 PAF- or ATP-stimulation induces reactivation of desensitized FPR2. […] A representative experiment is shown and the time point for addition of FPR2 agonists is indicated by the first arrow, the time point for PAF stimulation (100 nM final concentration) with the second arrow. The control PAF response induced in naïve (non-desensitized) neutrophils is shown for comparison (dotted line). Abscissa: Time of study (min); ordinate: Superoxide production (Mcpm). B. Naïve neutrophils were first desensitized with F2Pal10 (F2Pal10des., 500 nM final concentration) and subsequently stimulated with PAF (100 nM final concentration; time point for PAF addition is indicated by an arrow). The FPR2 specific inhibitor PBP10 (1 µM) was added 1 min prior to PAF stimulation (dashed line) and the release of superoxide anions was recorded continuously. The PAF responses induced in naïve cells (solid line), as well as in F2Pal10-desensitized cells receiving no PBP10 (dotted line), are shown for comparison. Abscissa: Time of study (min); ordinate: Superoxide production (Mcpm). C. Effect of calyculin A on receptor cross-talk induced FPR2 reactivation. Cells desensitized with F2Pal10 (F2Pal10des.) were incubated with the phosphatase inhibitor calyculin A (60 nM; solid line) or buffer as control (dashed line) for 10 min at 37°C prior to PAF stimulation (100 nM). The release of superoxide anions was recorded continuously. Abscissa: Time of study (min); ordinate: Superoxide production (Mcpm). […] Abscissa: Time of study (min); ordinate: Superoxide production (Mcpm). […] The results are given as peak values of superoxide production following addition of ATPγS (mean+SEM; n = 3).
Figure 4 More pronounced reactivation was induced by PAF in neutrophils desensitized by the pepducin F2Pal10. […] The results are given as peak values of superoxide production from three separate experiments for the first stimulation with FPR2 agonists (mean+SEM, n = 3). […]

For assay [2], the system named is neutrophils. Nature of the assay: Inhibition of FPR2 agonist-induced superoxide by pertussis toxin or kinase inhibitors. The assay is classed as cell-based, human. The conditions noted are these: WKYMVM 50 nM, F2Pal10 500 nM; for inhibition of F2Pal10- and WKYMVM-induced superoxide by kinase inhibitor: inhibitors 20 nM to 1 µM (1 µM shown), 15 min at 37°C, n = 3. The procedure: as §1, §2
A. Primary human neutrophils were treated with pertussis toxin (PTX, 500 ng/ml final concentration) and samples were withdrawn at indicated time points. […] As a control, the PMA response (5×10^−8 M final concentration) from control cells (120 min incubation without PTX, solid line in the inset) or treated with PTX for 120 min (dashed line in the inset) is shown. Superoxide production (peak values) from pertussis toxin treated neutrophils was compared to that from non-treated control cells. A representative experiment out of more than five is shown. B and C. Fluo-3-AM/FuraRED labeled neutrophils were incubated without any additive (solid lines) or with EGTA (2 mM; dotted lines). […] Traces of representative calcium responses are shown and at least three experiments have been performed. Abscissa, time of study (sec); ordinate, fluorescence (arbitrary unit). D. Primary human neutrophils were incubated with different pharmacological kinase inhibitors (1 µM final concentration) for 15 min at 37°C. Control cells were incubated at the same condition but received no inhibitors. […] Data are presented as % inhibition compared to the control response (peak values of superoxide production were used, mean±SEM, n = 3).
The effects of these inhibitors were determined using different concentrations ranging from 20 nM to 1 µM.

Assay [3] has as its system neutrophils. Put plainly: Priming of FPR2 agonist-induced superoxide response. The settings on record: versus non-primed cells, n = 3; for priming effect on F2Pal10-induced superoxide: F2Pal10 500 nM; for priming effect on WKYMVM-induced superoxide: WKYMVM 50 nM. The assay is classed as cell-based, human. On the procedure: as §1, §2
A. A representative experiment of an F2Pal10 induced response in control (solid line) and latrunculin A treated neutrophils (dashed line) is shown. The time point for addition of F2Pal10 is indicated by an arrow. Abscissa: Time of study (min); ordinate: Superoxide production (Mcpm). […] A non-priming cut-off line (fold increase = 1) is included as a horizontal broken line in the figure.

Assay [4] has as its system desensitized FPR2. Nature of the assay: ATP/ATPγS-induced cross-talk reactivation of desensitized FPR2 (superoxide). The settings on record: desensitized by WKYMVM (40 nM) or F2Pal10 (500 nM); ATPγS 50 µM. In kind it is cell-based, human. On the procedure: as §1
The NADPH-oxidase activity was determined using isoluminol-enhanced chemiluminescence (CL), [27]. The CL activity was measured in a six-channel Biolumat LB 9505 (Berthold Co., Wildbad, Germany), using disposable 4-ml polypropylene tubes with a 900 µl reaction mixture containing 10^5 cells, isoluminol (2×10^−5 M) and HRP (2 U). The tubes were equilibrated in the Biolumat for 5 min at 37°C, after which the stimulus (100 µl) was added and the light emission was recorded continuously. […]
Figure 3 PAF- or ATP-stimulation induces reactivation of desensitized FPR2. […] The FPR2 specific inhibitor PBP10 (1 µM) was added 1 min prior to PAF stimulation (dashed line) and the release of superoxide anions was recorded continuously. […] The release of superoxide anions was recorded continuously. […]

Another assay has as its system P2Y2R. Put plainly: Direct NADPH-oxidase activation in naive neutrophils by P2Y2R agonists. The assay is classed as cell-based, human. On the procedure:
as §1
as §2, with “For studies with signaling inhibitors, cells were incubated with inhibitors at 37°C for 15 min before agonist addition. Control cells received no treatment but were incubated under the same conditions.” left out

Assay [5] deals with T1, formyl peptide receptor 2 (FPR2) (human (endogenous in neutrophils), UniProt P25090 1-351).
T1 sequence (looked up): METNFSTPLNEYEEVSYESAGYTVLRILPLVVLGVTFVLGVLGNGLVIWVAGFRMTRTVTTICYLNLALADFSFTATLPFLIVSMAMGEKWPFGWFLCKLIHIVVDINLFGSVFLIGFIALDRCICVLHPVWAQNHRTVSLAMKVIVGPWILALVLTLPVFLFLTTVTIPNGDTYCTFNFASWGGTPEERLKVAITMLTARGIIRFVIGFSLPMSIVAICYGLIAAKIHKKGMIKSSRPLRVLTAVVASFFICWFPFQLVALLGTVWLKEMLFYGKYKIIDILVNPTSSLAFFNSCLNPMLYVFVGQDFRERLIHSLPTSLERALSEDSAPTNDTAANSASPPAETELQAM
Put plainly: cell-based or functional assay.

Where no end group is shown, it is not given here. The star is where a group is joined. Palmitoyl = CCCCCCCCCCCCCCCC(=O)*

With `Cc1nnc2n1-c1sc(CCC(=O)N3CCOCC3)cc1C(c1ccccc1Cl)=NC2` [WEB2086], in the assay with desensitized FPR2 [1], the “inhibition of PAF response in FPR2-desensitized neutrophils” value is “inhibited”.
As for `C[S+]([O-])c1ccc(-c2nc(-c3ccncc3)c(-c3ccc(F)cc3)[nH]2)cc1` (stereo not shown) [SB203580], the “inhibition of F2Pal10- and WKYMVM-induced superoxide by kinase inhibitor” value in the assay on neutrophils [2] is “Very similar degrees of inhibition”.
Still for that read-out and setting: the result for `O=c1c(-c2ccc(O)cc2)coc2cc(O)cc(O)c12` [Genistein] reads “Very similar degrees of inhibition”.
`COC[C@@H]([C@H](O)[C@H](O)C(=O)NCC[C@H](C)c1nc(/C=C/C[C@@H]2O[C@]3(C[C@@H](O)[C@@H]2C)O[C@H]([C@H](C[C@H](O)[C@H](C)[C@H](O)[C@H](C)/C=C(C)/C(C)=C/C=C/C(C)=C\C#N)OC)[C@H](OP(=O)(O)O)C3(C)C)co1)N(C)C` [calyculin A]: the “inhibition of PAF response in FPR2-desensitized neutrophils” value in the assay on desensitized FPR2 [1] is given as “inhibited”. For the same molecule, in the assay on neutrophils [3], the “priming effect on F2Pal10-induced superoxide” value is recorded as “Very similar priming effects” and the “priming effect on WKYMVM-induced superoxide” value was “significantly more superoxide than non-primed control cells”.
For the molecule pertussis toxin, the “inhibition of F2Pal10- and WKYMVM-induced oxidase response by pertussis toxin” value with neutrophils [2] (PTX 500 ng/ml, 90 and 120 min) is “largely inhibited”.
On to `Nc1ncnc2c1ncn2[C@@H]1O[C@H](COP(=O)(O)OP(=O)(O)OP(=O)(O)O)[C@@H](O)[C@H]1O` [ATP], for which the “superoxide release in FPR2-desensitized cells by P2Y2R agonist” value in the assay with desensitized FPR2 [4] is “induced a release of superoxide anions in FPR2 desensitized cells”. For the same molecule, in the assay on P2Y2R, the “direct activation of NADPH-oxidase in naive neutrophils” value was “can not directly activate the NADPH-oxidase in naïve neutrophils”.
For the molecule TNFα, in the assay with neutrophils [3], the “priming effect on F2Pal10-induced superoxide” value is given as “Very similar priming effects” and the “priming effect on WKYMVM-induced superoxide” value was “significantly more superoxide than non-primed control cells”.
As to Palmitoyl-KIHKKGMIKS [F2Pal10 pepducin], in assay [5], the “maximum superoxide response of human neutrophils, relative to that induced by WKYMVM” value came out at 70% and the “superoxide release (NADPH-oxidase activity, isoluminol chemiluminescence) from human neutrophils, F2Pal10 50-2000 nM, EC50” value is ~300 nM.
